Results taken from ChEMBL document CHEMBL3301361, “Experimental in vitro DMPK and physicochemical data on a set of publicly disclosed compounds”.

Assay: physchem
Details: octan-1-ol/water

Compound | logD (pH 7.4, LogD7.4) | logD (pH 7.4)
Cc1nc2c(C#N)cnn2c(O)c1Cc1ccccc1 | 0.68 | –
Nc1ncc(-c2ccc(S(=O)(=O)N3CCOCC3)cc2)nc1C(=O)Nc1cccnc1 | 2.83 | –
O=C(COc1ccc(OCCNCC(O)COc2ccccc2)cc1)NCCO (centres undefined) | 0.42 | –
Fc1ccc(C2CCN(C(=S)COCc3ccncc3)CC2)c(Cl)c1 | 4.23 | –
COc1ccccc1-c1nnc(N)[nH]1 | 0.91 | –
CNC(=O)c1ccc(Nc2nccc(-c3cnc(C)n3C(C)C)n2)cc1F | 2.95 | –
Cc1cc2n[nH]c(=O)n2c2cc(-c3cccc(CO)c3)ccc12 | 3.36 | –
CC(C)Cn1c(=O)n(C)c(=O)c2c(SCCCO)c(Cc3ccccc3C(F)(F)F)sc21 | 4.05 | –
O=c1c(O)cccc2cc(O)c(O)c(O)c12 [PURPUROGALLIN] | 2.03 | –
CCN(C(=O)NCc1ccccc1)C1CCN(CCC(c2ccccc2)c2ccccc2)CC1 | 4 | –
S=C(NC1CCCCC1)N1CCC(c2cnc[nH]2)CC1 [THIOPERAMIDE] | – | 2.3
COc1cc(N2CCN(C(C)=O)CC2)ccc1Nc1ncc(Cl)c(-c2cnc3c(OC)cccn23)n1 | 3.5 | –
COc1cc(C(=O)N2CC[C@](CCN3CCC(C(N)=O)(c4ccccc4)CC3)(c3ccc(Cl)c(Cl)c3)C2)cc(OC)c1OC | – | 3.23
COc1cc2ncnc(Nc3cc(Cl)ccc3F)c2cc1OCCCN1CCOCC1 | 3.4 | –
COc1cc(F)ccc1-c1cncc(CNC(=O)c2ccccc2)c1 | 3.76 | –
Cc1cc(NC(=O)c2ccc(Cl)cc2)n(-c2ccccc2)n1 | 3.25 | –
CC(C)Cn1c(=O)n(C)c(=O)c2c(-c3cncn3C)n(Cc3cccc4ccccc34)nc21 | 4.1 | –
CC(O)(C(=O)Nc1ccc(S(=O)(=O)c2ccncc2)cc1)C(F)(F)F (centres undefined) | 2.15 | –
O=C(C(=O)c1cc(Br)ccc1O)c1cc(Br)ccc1O | 3.85 | –
O=C1Nc2ccc(S(=O)(=O)N3CCC[C@H]3COc3ccccc3)cc2C1=O | 2.7 | –
O=C(c1ccc(-c2nc(=O)o[nH]2)cc1)N1CCC(N2CCC(Oc3ccc(Cl)c(Cl)c3)CC2)CC1 | 2.24 | –
CCOC(=O)c1ccc(N)cc1 [BENZOCAINE] | 1.83 | –
c1ccc2[nH]c(-c3cscn3)nc2c1 [THIABENDAZOLE] | 2.35 | –
Clc1cccc(Nc2ncnc3ccccc23)c1 | 3.9 | –

Compound | logD (pH 7.4, LogD7.4) | logD (pH 7.4)
c1ccc(CNc2nc3ccccc3[nH]2)cc1 | 2.76 | –
COc1ccc2c(C)cc(=O)n(CCN3CCC(NCc4cc5c(cn4)OCCO5)CC3)c2c1 | 1.72 | –
Clc1ccc(C2CC=CCNC2)cc1Cl (centres undefined) | – | 1.86
N#C/C(=C(\N)Sc1ccc(N)cc1)c1ccccc1C(F)(F)F | 3.4 | –
CN[C@@H](C)C(=O)N[C@H](C(=O)N[C@H]1CCCN(CCc2cccc(F)c2)C1)C1CCCCC1 | 2.64 | –
CCCCN1Cc2c(nc3cc(-c4ccco4)nn3c2O)C1=O | 0.8 | –
Cc1cc(C)cc(CCOCCS(=O)(=O)NCCNCCc2ccc(O)c3nc(O)sc23)c1 | 2.45 | –
O=C1NC(=O)c2cc(OCc3ccccc3)ccc21 | 3.1 | –
C[C@H](Oc1ccc(S(C)(=O)=O)cc1C(=O)N1CCN(c2ncc(C(F)(F)F)cc2F)CC1)C(F)(F)F [BITOPERTIN] | 3.49 | –
Cc1oc(S(C)(=O)=O)cc1-c1c2c(=O)n(C)c(=O)n(CC3CC3)c2nn1Cc1cn(C)c2ccc(Cl)cc12 | 4.48 | –
CCCc1c(OCCCCSCC(=O)O)ccc(C(C)=O)c1O | 1.3 | –
CC(C)C(NC(=O)Cn1c(-c2cc(F)cc(F)c2)ncc(N)c1=O)C(=O)C(F)(F)F (centres undefined) | 1.38 | –
O=c1ccc(=O)c2ccccc2[nH]1 | 1.02 | –
CCn1c(=O)c2c(-c3cc(C#N)cn3C)n(Cc3ccnc4ccc(Cl)cc34)nc2n(CC2CC2)c1=O | 4.13 | –
CN(C)CC(O)COc1ccc(Nc2nccc(Nc3ccccc3)n2)cc1 (centres undefined) | 1.58 | –
Nc1n[nH]c2ccccc12 | 1 | –
C[C@H]1O[C@@H](n2cnc3c(N)nc(OC(C4CC4)C(F)(F)F)nc32)[C@H](O)[C@@H]1O (some centres undefined) | 1.83 | –
OC1(c2ccccc2)CNCCc2ccccc21 (centres undefined) | 1.38 | –
Cc1ccc(OC(=O)N2CCN3CCC2CC3)cc1 | – | 1.02
COc1nc(Cl)cnc1NS(=O)(=O)c1cccc2c(N(C)C)cccc12 | 1.74 | –
CNC(=O)c1cccc(S(=O)(=O)Nc2ncc(C)nc2OC)c1-c1ccc(CC(C)C)cc1 | 1.68 | –
O=C(Cc1ccc(O)cc1)c1ccc(O)cc1O | 2.54 | –
CN(C)C(=O)CC(NC(=O)C1(N)CCN(c2ncnc3[nH]ccc23)CC1)c1ccc(Cl)cc1 (centres undefined) | 2.4 | –
CC(C)N1CCN[C@@H](CN2CCN(C(=O)Nc3ccc(Cl)c(Cl)c3)CC2)C1 | 1.92 | –

Compound | logD (pH 7.4, LogD7.4) | logD (pH 7.4)
Cc1ccc2c(N)c(C#N)sc2n1 | 2.23 | –
COc1cc(-c2c(F)ccc3c(N)c(C(=O)NC4CC4)nnc23)c(OC)nn1 | 2.75 | –
Cc1ccc(-c2ncc(CN3CCOCC3)s2)cc1NC(=O)c1ccc(OCc2ccccn2)cc1 | 3.1 | –
CC1(O)CN(S(=O)(=O)c2ccc3c(C(=O)NC[C@@H](O)CN4CCC(Oc5ccc(Cl)c(Cl)c5)CC4)c[nH]c(=O)c3c2)C1 | 2.54 | –
NC(=O)c1cccc(O[C@H]2C[C@H]3CC[C@@H](C2)N3Cc2ccccc2)c1 | – | 1.61
Cc1sc(CN2CCNCC2)cc1C(=O)NCC12CC3CC(CC(C3)C1)C2 | 2.55 | –
CC1(c2ccccc2)CC(=O)NC(N)=N1 (centres undefined) | 0.62 | –
COc1cc2c(c(OC)c1OC)-c1ccc(OC)c(=O)cc1[C@@H](NC(C)=O)CC2 [COLCHICINE] | – | 0.82
O=CN1CC=C(c2c(F)cc(N3C[C@H](COc4ccon4)OC3=O)cc2F)CC1 | 2.01 | –
CN1CCN(C(=O)c2cc3cc(F)ccc3[nH]2)CC1 | 1.97 | –
Fc1ccc(CNc2ncc(Br)c(Nc3cc(C4CC4)[nH]n3)n2)cc1 | 4.28 | –
CCN(CC)C(=O)c1ccc(C2=CC3(CCNCC3)Oc3ccccc32)c(O)c1 [ADL-5747 FREE BASE] | – | 0.77
Nc1ccccc1NC(=O)c1ccc(CNC(=O)OCc2cccnc2)cc1 [ENTINOSTAT] | 1.26 | –
Cc1ncc(-c2nc(Nc3ccc(C(=O)N4CC[C@@H](N(C)C)C4)cc3)ncc2F)n1C(C)C | 2.36 | –
CC(C)[C@@H](CN1CC[C@@](C)(c2cccc(O)c2)[C@@H](C)C1)NC(=O)[C@H]1Cc2ccc(O)cc2CN1 [JDTIC] | – | 2.39
CC(C)[C@H](N)C(=O)OCCOCn1cnc2c(=O)[nH]c(N)nc21 [VALACYCLOVIR] | – | -1.3
CC(C)C1NCCc2c1sc1ccccc21 (centres undefined) | – | 2.8
O=c1c2ccccc2nc2ccccn12 | 2.1 | –
O=C(N[C@@H]1CN2CCC1CC2)c1ccc(-c2ccccc2)s1 | – | 1.77
COc1ccc(-n2cnc3cc(NS(=O)(=O)c4ccccc4)ccc32)cc1 | – | 3.7
N=C(N)Nc1nc2ccccc2o1 | 1.91 | –
Nc1cc(-c2ccccc2)nc2ccccc12 | 2.2 | –
CN1CCC[C@H]1c1cccnc1 [NICOTINE] | – | 0.5
CN1CCC(C#N)(c2cccc3ccccc23)CC1 | – | 2.73

Compound | logD (pH 7.4, LogD7.4) | logD (pH 7.4)
CCCNC(=O)c1nnc2c(-c3cc(C)ccc3OC)cccc2c1N | – | 3.99
CCN(C(=O)Cc1ccc(S(C)(=O)=O)cc1)C1CCN(CCC(c2ccccc2)c2ccc(C#N)cc2)CC1 (centres undefined) | 2.76 | –
Cc1c(-c2ccc(O)cc2)c(=O)oc2cc(O)ccc12 | 2.8 | –
c1ccc(OCC2CNCCO2)cc1 (centres undefined) | 0.2 | –
Cc1ccc(/C=C(\C#N)C(N)=O)cc1 | 2.09 | –
Nc1ccc2ncnc(Nc3ccc(F)c(Cl)c3)c2c1 | 2.64 | –
CN1CCN(c2cc(F)cc3c(=O)cc(C(=O)Nc4ccc(N5CCOCC5)cc4)[nH]c23)CC1 | 2.7 | –
Clc1ccccc1CN1CCc2sccc2C1 [TICLOPIDINE] | 3.46 | –
C[C@@H]1C2CCCC1(c1cccc(O)c1)CCN2C (some centres undefined) | – | 0.52
COc1cc2ncc(C(N)=O)c(Nc3ccc(F)cc3F)c2cc1OC | 2.95 | –
COc1ccc(COc2ccc(Cc3cnc(N)nc3N)cc2OC)cc1 [GW632580X] | 2.27 | –
CC(C)[C@@H]1N=C(c2ccccc2)c2ccccc2NC1=O | – | 3.05
Cc1nc(-c2ccc(CN3CCC(n4c(=O)[nH]c5ccccc54)CC3)cc2)c(-c2ccccc2)[nH]c1=O | – | 3.8
CNC1=Nc2ncccc2C(c2cc[nH]c2)=NC1c1cccs1 (centres undefined) | – | 1.73
CN(C)C(=O)N1CCC(C(=O)NCc2cccs2)CC1 | 1.1 | –
CNC1=Nc2ncccc2C(c2ccco2)=NC1c1ccns1 (centres undefined) | – | 1.44
CC(C)(C)OC(=O)N1CCN(c2ncc(OCc3ccncc3C#N)cn2)CC1 | – | 2.81
CN[C@@H](C)C(=O)N[C@H](C(=O)N[C@H]1CCCN(CCc2ccccn2)C1)C(C)(C)C | -0.55 | –
C[Si](C)(C)C#Cc1cn(C[C@H]2CN(c3ccc(C4=CCS(=O)(=O)CC4)c(F)c3)C(=O)O2)nn1 | 1.26 | –
NC(=O)c1ccc(O[C@H]2C[C@H]3CC[C@@H](C2)N3Cc2ccccc2)nc1 | – | 1.25
COc1ccc(Nc2ccccc2C(=O)O)cc1 | 1.2 | –
CC[C@H]1OC(=O)[C@H](C)[C@@H](O[C@H]2C[C@@](C)(OC)[C@@H](O)[C@H](C)O2)[C@H](C)[C@@H](O[C@@H]2O[C@H](C)C[C@H](N(C)C)[C@H]2O)[C@](C)(O)C[C@@H](C)/C(=N\OCOCCOC)[C@H](C)[C@@H](O)[C@]1(C)O [ROXITHROMYCIN] | 1.8 | –
